Data from paper PMC7554656 (Molecular Metabolism, 2020).

Molecular target: T1, SGLT2 (sodium-glucose cotransporter 2) (Homo sapiens, UniProt P31639)
T1 sequence (P31639 1-672): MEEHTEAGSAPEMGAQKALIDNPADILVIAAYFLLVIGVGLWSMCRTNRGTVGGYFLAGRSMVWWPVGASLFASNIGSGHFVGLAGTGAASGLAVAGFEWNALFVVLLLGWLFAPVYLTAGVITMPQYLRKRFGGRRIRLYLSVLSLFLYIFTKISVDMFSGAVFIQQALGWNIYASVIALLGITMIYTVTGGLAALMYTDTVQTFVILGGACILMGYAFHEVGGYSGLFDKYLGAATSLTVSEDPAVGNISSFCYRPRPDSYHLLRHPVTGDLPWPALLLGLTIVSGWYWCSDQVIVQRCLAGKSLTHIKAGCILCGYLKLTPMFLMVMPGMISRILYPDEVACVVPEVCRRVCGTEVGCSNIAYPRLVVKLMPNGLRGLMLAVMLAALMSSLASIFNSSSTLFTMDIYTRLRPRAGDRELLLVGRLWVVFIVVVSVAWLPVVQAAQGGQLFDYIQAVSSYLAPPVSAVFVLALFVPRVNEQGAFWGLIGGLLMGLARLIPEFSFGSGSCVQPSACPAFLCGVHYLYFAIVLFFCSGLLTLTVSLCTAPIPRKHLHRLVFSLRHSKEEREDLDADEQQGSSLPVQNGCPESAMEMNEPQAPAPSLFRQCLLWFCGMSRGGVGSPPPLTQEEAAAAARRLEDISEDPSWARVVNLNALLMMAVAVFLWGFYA
Experiment: inhibition of […]-alpha-methyl-D-glucopyranoside uptake in HEK293-hSGLT2 cells
Assay type: cell-based

Q: Which EC50 does the source give for `OC[C@H]1O[C@@H](c2ccc(Cl)c(Cc3ccc(O[C@H]4CCOC4)cc3)c2)[C@H](O)[C@@H](O)[C@@H]1O` [empagliflozin] here?
A: The EC50 was 4.3 nM.
